Data: patent US20240197760A1, “ACTIVATORS OF INTEGRATED STRESS RESPONSE PATHWAY FOR PROTECTION AGAINST FERROPTOSIS” (Burke Neurological Institute, priority 2021, published 2024)
*1 amine or outer side, *2 acyl side, *3 side chain or, on linkers, in order; H or OH if unused. Where a SMILES comes first, the peptide text is derived from it. Bridges are numbered along the chain shown (N, C = ends). Roman numbers before positions name the chains, in order. [ ]: non-standard residue; d: D form. Actinocin(9to1) = Cc1c2oc3c(C)ccc(C(=O)[*:1])c3nc-2c(C(=O)[*:2])c(N)c1=O; NMeV = CN[C@H](C(=O)O)C(C)C; Sar = CNCC(=O)O

Experiments:
Creb1, Bdnf, Rbbp4 = test: Plasticity gene expression by quantitative real time PCR in mouse primary neurons; type: cell-based; details: for effect on 2-DG led increase in Bdnf gene expression: increasing concentrations co-treated with 2-DG
Protocol: Primary immature neuronal cultures were prepared from cerebral cortex of E14 embryos (day 14 of gestation) of CD1 mice under sterile conditions. Dissected cortices were incubated at 37° C. for 20 min in EBSS solution containing papain, L-cystine and EDTA, which was activated at 37 °C for 30 min and then was filtered through […] (Millipore, catalog number—SCGP00525). Cortices were then mechanically dissociated by trituration with glass pipettes. The rDNase was added in dissociated cells followed by incubation of these dissociated cells at 37 °C for 3 min. Thereafter, these cells were centrifuged at 2800 rpm for 5 min. Then supernatant was discarded, and cell were resuspended gently in a 5 ml mixture of EBSS and 10/10 solution (4:1 ratio). Then 5 ml of 10/10 solution was added gently on top and these resuspended cells were centrifuged at 2800 rpm for 10 min. Supernatant was again discarded and cells were resuspended in 10 ml MEM, Glutamax supplement (Thermo Fisher Scientific, Catalog number—41090036) containing 10% heat inactivated fetal bovine serum (Thermo Fisher Scientific, Catalog number—16140071), 5% heat inactivated horse serum (Thermo Fisher Scientific, Catalog number—26050088), and 1% penicillin/streptomycin (Thermo Fisher Scientific, Catalog number—15140122). Thereafter, resuspended cells were filtered through 70-micron cell strainer (Thomas Scientific, catalog number—4620F02) followed by their counting through Hemocytometer. Cells were, finally, plated at the density of 1 million cells/ml onto poly-D-Lysine (PDL; Sigma Aldrich, catalog number—P6407-10X5MG) coated pates and placed in CO2-buffered incubators at 37° C.
(§1) Total RNA was extracted from primary cortical neurons using NucleoSpin RNA II Kit (Clontech, Catalog number—740955-250). Thereafter, using the Taqman RNA-to-Ct, one step kit (Thermo Fisher Scientific, catalog number—4392938) and following the manufacturer's instructions, […] from each sample was mixed with the Taqman® Gene Expression Master Mix and Taqman® Gene Expression Assays for Creb1 (Catalog number—Mm00501607_m1), Bdnf (Catalog number—Mm04230607_s1), Rbbp4 (Catalog number—Mm00771401_g1), Bip (Catalog number—Mm00517691_m1), Trib3 (Catalog number—Mm00454879_m1), and Chac1 (Catalog number—Mm00509926_m1) with FAM labelled probe and Actin with VIC labelled probe all from Thermo Fisher Scientific on an Applied Biosystems 7500 Fast Real Time PCR System. For assessing gene expression of various specific Bdnf exons in mouse primary neurons, two step qPCR was used. Total RNA from primary cortical neurons was extracted using NucleoSpin RNA II Kit (Clontech, Catalog number—740955-250) and a total of 1.5 μg RNA was used to synthesize cDNA with the SuperScript® III First-Strand Synthesis System (Thermo Fisher Scientific, Catalog number—18080051). Quantitative RT-PCR was then performed using SYBR green (Thermo Fisher Scientific, Catalog number—4309155) on an Applied Biosystems 7500 Fast Real Time PCR System. Quantitative levels for all genes were normalized to the housekeeping gene GAPDH and expressed relative to the relevant control samples as fold change. The sequences of primers used in this part of the study were as follows: Bdnf I forward: […] (SEQ ID NO:9) and Bdnf I reverse: […] (SEQ ID NO:10); Bdnf II forward: […] (SEQ ID NO:11) and Bdnf II reverse: […] (SEQ ID NO:12); Bdnf IV forward #2: […] (SEQ ID NO:13) and Bdnf IV reverse #2: […] (SEQ ID NO:14); Bdnf VI forward: […] (SEQ ID NO:15) and Bdnf VI reverse: […] (SEQ ID NO:16); Bdnf VII forward: […] (SEQ ID NO:17) and Bdnf VII reverse: […] (SEQ ID NO:18) Bdnf IX forward: […] (SEQ ID NO:19) and Bdnf IX reverse: […] (SEQ ID NO:20); Gapdh forward #2: […] (SEQ ID NO:21) and Gapdh reverse #2: […] (SEQ ID NO: 22).

hippocampal slices = test: Long term potentiation (fEPSP) in submerged hippocampal slices; set-up: species or system mouse; details: 1 μg/ml with 2-DG 10 mM, 6 h, hippocampal slices
Description: Brains were quickly removed from mice sacrificed by cervical dislocation and placed in cold artificial cerebrospinal fluid (ACSF) (bubbled with 95% O2/5% CO2) containing (in mM): 124 NaCl, 4 KCl, 1 Na2HPO4, 25 NaHCO3, 2 CaCl2, 2 MgCl2, and 10 glucose. The pH and osmolarity of the solution were 7.4 and 310 mOsm/L, respectively. The hippocampus was isolated and placed on a mechanical tissue chopper to produce transverse hippocampal slices of 400 μm thickness. […] Hippocampal slices were allowed to recover for at least 90 min prior to beginning the experiment. For recordings, glass electrodes were filled with ACSF and positioned in the CA1 stratum radiatum to record fEPSPs evoked by local stimulation (0.1 ms) of Schaffer collateral fibers using a bipolar concentric electrode placed laterally to the recording electrode (˜150 μm). For LTP recordings, the voltage intensity of the stimulation test pulse (square pulse, 100 us duration) for each slice was determined to be the voltage intensity that had generated 30-40% of the maximum slope obtained using input-output relationships. Facilitation was calculated as the ratio of the slopes of the second and first fEPSPs, and plotted as a function of the inter-pulse duration. For LTP, a test pulse was applied every minute. […] Residual potentiation was calculated as the average of the last 15 min of 2 h of recordings.

Bdnf = Bdnf gene expression in hippocampal slices submerged in ACSF; set-up: species or system mouse; details: 1 μg/ml with 2-DG 10 mM in ACSF
Trib3, Chac1, Bip = test: Expression of ATF4 target genes and chaperone Bip in mouse primary neurons; type: cell-based; details: for effect on glucosamine induced expression of Trib3: co-treatment with glucosamine, primary neurons
Protocol: as §1

[1] = tested on: Trib3 promoter, Bdnf promoter; test: Promoter reporter luciferase assay in primary neurons; type: cell-based, mouse; details: 5 μM co-treated with 2-DG 10 mM, 9 h
Protocol: Primary neurons were co-transfected with various plasmids such as different Bdnf exon promoters each tagged with firefly luciferase or Trib3 promoter tagged with firefly luciferase and pTK-renilla luciferase plasmid at 1:10 ratio using Lipofectamine 2000 (Thermo Fisher Scientific, catalog number—11668019) according to the manufacturer's instructions to control for transfection efficiency. […] Thereafter, luciferase activity was measured using dual luciferase assay kit (Promega) and bioluminometer (MDS Analytical Technologies). Final luciferase activity was calculated by normalizing firefly luciferase activity with Renilla luciferase activity and then the valued were converted to fold change with respect to control.

[2] = 3 μM, 6 h, mouse primary neurons
[3] = 5 μM co-treated with 2-DG 10 mM, 9 h

N[C@H]1C(O)O[C@H](CO)[C@@H](O)[C@@H]1O (stereo partly shown) [glucosamine]
glucosamine induced expression of plasticity genes in combination with actinomycin D (Creb1, Bdnf, Rbbp4; 6 h, mouse immature primary neurons): transcription dependent
expression of plasticity genes Creb1, Bdnf and Rbbp4 (mRNA) (Creb1, Bdnf, Rbbp4; increasing concentrations, 6 h, mouse primary neurons): dose dependent increase

O=C[C@H](O)[C@@H](O)[C@H](O)[C@H](O)CO [D-glucose]
effect on 2-DG led increase in Bdnf gene expression (Creb1, Bdnf, Rbbp4; 6 h, mouse primary neurons): decreased 2-DG led increase in Bdnf gene expression in a dose dependent manner

Cc1c2oc3c(C)ccc(C(=O)N[C@@H]4C(=O)N[C@H](C(C)C)C(=O)N5CCC[C@H]5C(=O)N(C)CC(=O)N(C)[C@@H](C(C)C)C(=O)O[C@@H]4C)c3nc-2c(C(=O)N[C@@H]2C(=O)N[C@H](C(C)C)C(=O)N3CCC[C@H]3C(=O)N(C)CC(=O)N(C)[C@@H](C(C)C)C(=O)O[C@@H]2C)c(N)c1=O [ActD, actinomycin D] (I: T[dV]P[Sar][NMeV] / II: T[dV]P[Sar][NMeV]; ester I:1-I:C, II:1-II:C; linker I:N-II:N via Actinocin(9to1))
effect on 2-DG led induction in LTP (hippocampal slices): completely blocked
effect on 2-DG led increase in plasticity genes Creb1, Bdnf and Rbbp4 (Creb1, Bdnf, Rbbp4; co-treatment with 2-DG, 6 h, mouse immature primary neurons): completely blocked
effect on 2-DG led increase in Bdnf gene expression in hippocampal slices (Bdnf): able to block

O=C[C@@H](O)[C@@H](O)[C@H](O)[C@H](O)CO [D-mannose]
effect on 2-DG led increase in Bdnf gene expression (Creb1, Bdnf, Rbbp4; 6 h, mouse primary neurons): decreased 2-DG led increase in Bdnf gene expression in a dose dependent manner

tunicamycin
gene expression of chaperone Bip (Trib3, Chac1, Bip; [2]): increase
expression of plasticity genes Creb1 and Bdnf (Creb1, Bdnf, Rbbp4; [2]): increase

Cn1cc(-c2ccc3c(c2)CCN3C(=O)Cc2cccc(C(F)(F)F)c2)c2c(N)ncnc21 [GSK2606414, 7-methyl-5-(1-{[3-(trifluoromethyl)phenyl]acetyl}-2,3-dihydro-1H-indol-5-yl)-7H-pyrrolo[2,3-d]pyrimidin-4-amine]
effect on 2-DG led increase in Trib3 expression (mRNA) (Trib3, Chac1, Bip; [3]): completely blocked
effect on glucosamine induced expression of Trib3 (Trib3, Chac1, Bip): blocked
effect on glucosamine induced expression of Trib3 (Trib3, Chac1, Bip; listed as PERK inhibitor I): completely blocked
effect on 2-DG led increase in Bdnf expression (mRNA) (Creb1, Bdnf, Rbbp4; [3]): blocked
effect on glucosamine led increase in Bdnf gene expression (Creb1, Bdnf, Rbbp4; co-treatment with glucosamine, primary neurons): blocked
effect on 2-DG led increase in Bdnf promoter activity [1]: blocked
effect on 2-DG led increase in Trib3 promoter activity [1]: completely blocked
